Test results taken from patent US9829488B2, “Paper-based cellular arrays” (President and Fellows of Havard College, priority 2008, dated 2017).

Tests used:
HUVEC = assay: Three-dimensional migration (invasion) of HUVEC cells in MATRIGEL-permeated paper; type: cell-based, human
Description: A suspension of cells in […]™ (1 μL, 10^7 cells/mL) was spotted onto paper, and the paper was immersed in […]™. […] Migration of the cells into the surrounding […]™ was monitored over time using a fluorescent gel scanner. […] The radius of the cell-containing spot served as the measure of the migration. Cell-containing sheets were suspended in endothelial culture media supplemented with 100 ng/mL VEGF (“VEGF”) or 10 μM of small molecule inhibitor of Rho kinase Y27632 (“Y27632”).

3T3 fibroblasts = assay: Proliferation of 3T3 fibroblasts in MATRIGEL-permeated paper in 96-well plate (Alamar Blue); type: cell-based; conditions: colchicine added to the wells
Source text: One exemplary method is depicted in FIG. 8. In this method, a paper array of the same size is distributed to each well of the microtiter plate to ensure delivery of nearly identical number of cells per well (FIG. 8A). To illustrate this strategy, 2 mm×4 mm pieces of filter paper were permeated with suspension of 3T3 fibroblasts in MATRIGEL™ and then distributed into the wells of a 96-well plate. Alamar Blue was used to estimate the number of cells. […] 3T3 cells proliferated within MATRIGEL™-soaked paper but not within the MATRIGEL™-free paper (FIG. 8B), and this proliferation was halted when colchicine was added to the wells. This system, therefore, can be used to screen for agents that influence proliferation of cells in three-dimensional arrays.

PC-12 cells [1] = assay: Neuronal differentiation of PC-12 cells in paper-supported MATRIGEL (confocal microscopy, neurites); type: cell-based, rat; conditions: 6 days, 100 ng/mL NGF
Source text: Next, we assessed whether PC-12 cells maintained in paper-supported three-dimensional matrices were differentiated into neurons using NGF-treatment. We spotted suspensions of PC12 cells in MATRIGEL™ onto paper and suspended the paper in the media supplemented with NGF or with a combination of NGF and the ROCK inhibitor Y27632. Confocal microscopy examination uncovered neuron-like cells with long neurites. The morphology of cells and length of neurites varied when different media/additives were used.

[2] = system: PC-12 rat adrenal pheochromocytoma cell line; assay: Proliferation of PC-12 cells in MATRIGEL-permeated paper (phalloidin stain, gel scanner); type: cell-based; conditions: serum-containing media, 100 ng/mL NGF
Description: First, we assessed the proliferation of PC-12 cells grown in paper in response to NGF. Suspensions of PC12 cells in MATRIGEL™ (1 uL, 5×10^6 cells/mL) were spotted onto filter paper. The paper was placed in serum-containing media (2.5% fetal bovine serum, 15% horse serum in F12K basal media) or serum-containing media supplemented with 100 ng/mL of nerve growth factor (NGF). Cells within paper MATRIGEL™ matrix were cultured for the indicated times, fixed with formaldehyde, and stained with Alexa Fluor 488-conjugated phalloidin. The paper was scanned using a Typhoon fluorescent gel scanner (see FIG. 13A). Error bars are one standard deviation.

PC-12 cells [3] = assay: Quantitative PCR of neuronal transcripts NF-L and NPY in PC-12 cells; type: cell-based, rat; conditions: 100 ng/mL, day 3 or 4, GAPDH as reference
Description: Finally, we compared the differentiation of PC-12 cells maintained in paper-supported MATRIGEL™ (“paper”) with that of cells in paper-free MATRIGEL™ (“3D”) or on MATRIGEL™ coated surfaces (“2D”).
Cells in these matrices were proliferated in serum-containing media or in media supplemented with 100 ng/mL NFG. On day 3 or 4, the samples were processed to isolate mRNA and the level of expression of NF-L or NPY were assessed by quantitative PCR. GAPDH and actin were used as housekeeping controls. ΔΔCT-analysis was performed in the linear range for every primer using GAPDH as a reference. In FIG. 14, each data point is an average of measurements from 3 independent samples. The error bar is one standard deviation.

With VEGF the “radius of the invasion” value (HUVEC; EGM with additional 100 ng/mL VEGF, compared with EGM+10 μM Y27632) was “significantly lower”.

For `COc1cc2c(c(OC)c1OC)-c1ccc(OC)c(=O)cc1[C@@H](NC(C)=O)CC2` [colchicine], the “proliferation of 3T3 cells within MATRIGEL-soaked paper” value (3T3 fibroblasts) was “halted”.

`C[C@@H](N)[C@H]1CC[C@H](C(=O)Nc2ccncc2)CC1` [Y27632, reference compound] was tested, and the “outgrowth of cells (migration into surrounding MATRIGEL)” value (HUVEC; endothelial culture media + 10 μM Y27632) was “promoted” and the “neurites developed by cells” value (PC-12 cells [1]; serum-free media, 5 μM Y27632) was “extensive 3D network of interconnected neurites”.

With NGF: nerve growth factor the “effect on growth rate of the cells” value [2] was “little effect”, the “neurites developed by cells” value (PC-12 cells [1]; serum containing media) was “short neurites” and the “neurites developed by cells” value (PC-12 cells [1]; serum-free media) was “longer neurites”. The “level of NF-L expression” value (PC-12 cells [3]) was “induced” and the “level of NPY expression” value (PC-12 cells [3]) was “induced”.
